Patent publication US20250049753A1, “METHODS AND COMPOSITIONS FOR DELIVERING MYCOPHENOLIC ACID ACTIVE AGENTS TO NON-HUMAN MAMMALS” (Okava Pharmaceuticals, Inc., priority 2017, published 2025)
Values joined by “and” are separate entries in the source; they are usually repeats but may differ in a detail not shown here. Identical values can stand only once.

Assay: Study 1: single-dose cross-over PK, oral vs intracolonic Na.MPA
Type: in vivo, male beagle dogs
Conditions: for dose-normalized AUClast MPA: fasted, average
Protocol: Two single dose cross-over studies were conducted using a canine model (male beagle dogs) to evaluate the potential of an enteric coated-extended release sodium mycophenolate formulation (“EC-ER-Na.MP”). In a first cross-over study, the pharmacokinetics of MPA and its metabolites (MPAG and AcMPAG) following oral dosing of 180 mg of EC-Na.MPA was compared with intracolonic (IC) administration of Na.MPA. In a second cross-over study, 270 mg of an EC-ER-Na.MPA formulation was administered in the both fed and fasted states and pharmacokinetics were compared with oral administration of 10 mg/kg MMF in the fasted state. Both studies were conducted by Absorption Systems (San Diego, CA).
Study 1: For three days prior to IC dosing, dogs (n=5) were offered a soft diet consisting of canned wet food (Pedigree® Choice Cuts). Otherwise, the dogs were offered their standard diet (LabDiet 5006 laboratory canine diet). Prior to each dosing event, the dogs were fasted for 12 hours prior to dosing until 4 hours post-dose, when food was returned. Animals had free access to water throughout the study. Prior to IC dosing, each dog was given a non-stimulant enema approximately 1 hour prior to dosing to remove feces from the colon. Prior to PO dosing, each dog (n=5) was pre-treated with an intramuscular dose of pentagastrin (6 μg/kg) approximately 30 minutes prior to dosing. Capsules were administered by placement in the back of the throat followed by a 10 mL flush with water.
Each dog received a total dose of 180 mg of MPA for each dose. For IC dosing, MPA was delivered as a solution via an endoscope, and for PO dosing each dog received a single Myfortic® 180 mg enteric coated capsule. Following administration, blood samples were collected up to 24 hours post-dose. Plasma concentrations of MPA, MPAG, and AcMPAG were determined with a qualified LC-MS/MS method, and pharmacokinetic parameters were determined with WinNonlin v.6.4 software.

For `COc1c(C)c2c(c(O)c1C/C=C(\C)CCC(=O)O)C(=O)OC2` [MPA, Mycophenolic acid], the “dose-normalized AUClast MPA” value (IC 180 mg/dog) was 1817 ± 925 kg·ng·h/mL/mg and 1817 kg·ng·h/mL/mg, the “dose-normalized AUClast MPA” value (PO 180 mg/dog) was 2234 ± 799 kg·ng·h/mL/mg and 2234 kg·ng·h/mL/mg and the “systemic exposure to MPA following IC and PO dosing” value (based on average values) was “similar”. The “rate of MPA absorption, IC in comparison to PO dose” value (dog, in vivo, po) was “more rapidly absorbed following IC dosing”.
